Assays:
[1] = Stability in human subcutaneous skin homogenate; conditions: for Mono AUC (treprostinil formed) / AUC: human
[2] = target: T1, prostaglandin D2 (PGD2) receptor 1 (DP1) (Homo sapiens, UniProt Q13258); assay: DP1 receptor cAMP agonist assay (HEK293T cells); format: cell-based; conditions: for DP1 Relative to Tre: relative to treprostinil EC50 values, * partial agonists or ambiguous dose-response curves; for Activity at the DP1 receptor compared to treprostinil: summary of findings
T1 sequence (Q13258 1-359): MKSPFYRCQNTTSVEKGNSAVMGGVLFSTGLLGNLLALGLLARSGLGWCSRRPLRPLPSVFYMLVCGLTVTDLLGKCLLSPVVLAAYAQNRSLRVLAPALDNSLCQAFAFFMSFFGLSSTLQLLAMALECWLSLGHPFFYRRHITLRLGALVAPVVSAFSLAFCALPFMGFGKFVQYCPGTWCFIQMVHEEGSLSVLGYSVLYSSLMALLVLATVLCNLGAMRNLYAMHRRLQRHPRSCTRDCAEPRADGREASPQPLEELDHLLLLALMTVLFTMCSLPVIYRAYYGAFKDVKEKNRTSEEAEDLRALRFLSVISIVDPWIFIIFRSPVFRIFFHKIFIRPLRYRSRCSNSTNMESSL
Protocol: (§1) Cyclic AMP assay kit: Multiscreen™ TR-FRET cAMP 1.0 No Wash Assay Kit (Multispan, Inc.)
(§2) Cells were thawed from frozen cells and resuspended in assay buffer at desired concentrations. cAMP or Calcium assays were performed according to the manufacturer's protocol using Multiscreen™ TR-FRET cAMP 1.0 No Wash Assay Kit or Multiscreen™ Calcium 1.0 No Wash Kit.
(§3) Gas Cyclic AMP (cAMP) Assay: In agonist mode testing, cells were seeded in a 384-well plate at an appropriate density and then were treated with compounds and incubated at 37° C. for 20 minutes. The reaction was terminated by […] trFluor™ Eu-labeled cAMP and trFluor™ 650-labeled anti-cAMP antibody in lysis buffer. […] All testing wells contained 0.1% DMSO in the final concentrations.
(§4) Data in graphs are represented in Mean±SD. Dose-dependent responses were fitted with sigmoidal dose-response curves allowing variable slopes using GraphPad Prism version 6 (Graphpad Prism).
(§5) These studies used cell lines overexpressing either human IP, EP2 or DP1, or EP1 receptors, and following incubation with varying concentrations of compounds, cAMP levels were measured using Fluorescence Resonance Energy Transfer (FRET).

[3] = target: prostaglandin I2 (PGI2) receptor (IP) (Homo sapiens, UniProt P43119); assay: IP receptor cAMP agonist assay (CHO-K1 cells); format: cell-based; design: key to EC50 Fold Different from Treprostinil, IP Receptor: NC = too inactive to realistically calculate; conditions: for IP Relative to Tre: Table 22, relative to treprostinil EC50 values, * partial agonists or ambiguous dose-response curves; for Activity at the IP receptor compared to treprostinil: summary of findings
Chain of prostaglandin I2 (PGI2) receptor (IP) (P43119 whole entry): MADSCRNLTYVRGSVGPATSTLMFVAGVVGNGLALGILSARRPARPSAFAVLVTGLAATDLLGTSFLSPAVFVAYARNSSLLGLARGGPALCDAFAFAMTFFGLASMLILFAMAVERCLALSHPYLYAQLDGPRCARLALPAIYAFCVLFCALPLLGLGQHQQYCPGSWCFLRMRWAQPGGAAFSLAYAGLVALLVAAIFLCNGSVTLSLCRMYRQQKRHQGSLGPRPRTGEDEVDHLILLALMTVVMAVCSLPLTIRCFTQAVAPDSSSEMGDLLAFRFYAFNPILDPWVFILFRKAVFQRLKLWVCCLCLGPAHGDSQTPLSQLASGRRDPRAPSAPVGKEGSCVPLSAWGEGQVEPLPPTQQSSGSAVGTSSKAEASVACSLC
Protocol: as §1, §2, §3, §4, §5

[4] = Stability in cryopreserved hepatocytes, human; conditions: for Mono AUC (treprostinil formed) / AUC / CLint / Half-life: human; for CLint, calculated (in parentheses) / Half-life, calculated (in parentheses) / CLint / Half-life: hepatocytes
[5] = Table 18, * partial agonists or odd dose-response curves

Compound	Treprostinil Concentration 0 min [1]	Treprostinil Concentration 30 min [1]	Mono AUC (treprostinil formed) [1]	DP1 Relative to Tre ([2]; Table 22)	IP Relative to Tre [3]	Treprostinil Concentration 0 min [4]	Treprostinil Concentration 120 min [4]	Mono AUC (treprostinil formed) [4]	Trep Concentration 0 min [1]	Trep Concentration 30 min [1]	Trep Concentration 60 min [1]	Trep Concentration 120 min [1]	AUC [1]	DP1 Relative to Tre ([2]; Table 23)	Activity at the IP receptor compared to treprostinil [3]	CLint, calculated (in parentheses) [4]	Half-life, calculated (in parentheses) [4]	AUC [4]	CLint [4]	Half-life [4]	further results
CCCCCC(CCC1C(O)CC2Cc3c(cccc3OCC(=O)O)CC21)OC(=O)CC (centres unmarked) [Prodrug LV]	0.0045 µM	0.545 µM	78.38 µmol·min/L	94x	54x	0.113 µM	0.527 µM	68.8 µmol·min/L													
CCCCCC(CCC1C(OC(=O)CC)CC2Cc3c(cccc3OCC(=O)O)CC21)OC(=O)CC (centres unmarked) [Prodrug LXX, treprostinil dipropionate]	0 µM	0.0179 µM	5.303 µmol·min/L	410x		0.00542 µM	0.413 µM	56.2 µmol·min/L	0 µM	0.0179 µM	0.0411 µM	0.0972 µM	5.303 µmol·min/L	410x	inactive	0.185 mL/min/mg protein	2.50 min	56.2 µmol·min/L	> 0.0308 mL/min/mg protein	< 15 min	EC50 Fold Different from Treprostinil, DP1 Receptor [2, 5]: 410x*; Activity at the DP1 receptor compared to treprostinil [2]: several hundred-fold less active; EC50 Fold Different from Treprostinil, IP Receptor [3, 5]: NC; Trep Concentration (μM) 0 min [4]: 0.00542 µM; Trep Concentration (μM) 15 min [4]: 0.638 µM; Trep Concentration (μM) 30 min [4]: 0.556 µM; Trep Concentration (μM) 60 min [4]: 0.482 µM; Trep Concentration (μM) 120 min [4]: 0.413 µM
CCCCCC(CCC1C(OC(=O)OC)CC2Cc3c(cccc3OCC(=O)O)CC21)OC(=O)OC (centres unmarked) [Prodrug LXXI, treprostinil dicarbonate]			0.3108 µmol·min/L	2181x*				26.6 µmol·min/L					0.3108 µmol·min/L	2181x*	inactive	0.0516 mL/min/mg protein	8.96 min	26.57 µmol·min/L	> 0.0308 mL/min/mg protein	< 15 min	
CCCCCC(CCC1C(O)CC2Cc3c(cccc3OCC(=O)O)CC21)OP(=O)(O)O (centres unmarked) [Prodrug VI]	0 µM	0.6 µM	91.95 µmol·min/L	2x	5x	0 µM	0.540 µM	48.7 µmol·min/L													IP Relative to Tre ([3]; listed as Prodrug VI repeat): 1.5x
CCCCCC(CCC1C(O)CC2Cc3c(cccc3OCC(=O)O)CC21)OC(C)=O (centres unmarked) [Prodrug XLIII]	0.0034 µM	0.382 µM	62.92 µmol·min/L	272x	632x	0.00744 µM	0.507 µM	62.2 µmol·min/L													Treprostinil Concentration 60 min [1]: 0.583 µM; Treprostinil Concentration 120 min [1]: 0.839 µM
treprostinil diacetate [Prodrug LXXII]	0 µM	0.02 µM	7.512 µmol·min/L			0.00458 µM		49.9 µmol·min/L	0 µM	0.02 µM	0.0556 µM	0.147 µM	7.512 µmol·min/L		inactive	0.276 mL/min/mg protein	1.67 min	49.92 µmol·min/L	> 0.0308 mL/min/mg protein	< 15 min	Activity at the DP1 receptor compared to treprostinil [2]: several hundred-fold less active; Trep Concentration (μM) 0 min [4]: 0.00458 µM; Trep Concentration (μM) 15 min [4]: 0.562 µM; Trep Concentration (μM) 30 min [4]: 0.491 µM; Trep Concentration (μM) 60 min [4]: 0.433 µM

Reference: patent publication US12491170B2, “Stable treprostinil prodrugs” (United Therapeutics Corporation, priority 2020, dated 2025)
